Our source for the melting point values is patent US6583154B1, “Compounds and methods which modulate feeding behavior and related diseases” (Amgen Inc., priority 1998, dated 2003).

Structures can show the parent of a compound that is named as a salt.

For the molecule `Cc1nc(N2CCCCC2)c2[nH]c(-c3ccn(S(=O)(=O)c4ccccc4)c3)cc2n1.Cl` (hydrate or solvate) [Example 101, 3-(2-Methyl-4-piperidylpyrrolo[4,5-d]pyrimidin-6-yl)-1-(phenylsulfonyl)pyrrole Hydrochloride Hydrate], the melting point lay within 183 to 185.5 °C.

Molecule `Cc1nc(-n2cccn2)c2[nH]c(-c3ccccc3)cc2n1` (as salt: hydrochloride) (hydrate or solvate) [Example 218, 2-Methyl-6-phenyl-4-pyrazolypyrrolo[3,2-d]pyrimidine Hydrochloride Hydrate] gave a melting point of 253 to 254 °C. `COc1ccc(-c2cc3nc(C)nc(N4CCCCC4)c3[nH]2)cc1.Cl` (hydrate or solvate) [Example 71e, 4-Methoxy-1-(2-methyl-4-piperidylpyrrolo[4,5-d]pyrimidin-6-yl)benzene Hydrochloride Monohydrate]: the melting point was 267.5 to 268 °C (dec.). `Cc1nc(N2CCCCC2)c2[nH]c(C34C[C@H]5C[C@@H](C3)C[C@@H](C4)C5)cc2n1.Cl` (hydrate or solvate) [Example 81d, 6-Adamantanyl-2-methyl-4-piperidylpyrrolo[3,2-d]pyrimidine Hydrochloride Monohydrate] came in with a melting point of more than 280 °C. As for `Cc1nc(N2CCCCC2)c2[nH]c(-c3ccc(Cl)c(Cl)c3Cl)cc2n1.Cl` (hydrate or solvate), the melting point lay within 264 to 266 °C. With `CCc1nc(N2CCc3ccccc3C2)c2[nH]c(-c3ccccc3)cc2n1` (as salt: hydrochloride) (hydrate or solvate) [Example 202, 2-Ethyl-6-phenyl-4-(2-1,2,3,4-tetrahydroisoquinolyl)pyrrolo[3,2-d]pyrimidine Hydrochloride Monohydrate], the melting point was in the range of 170 to 171.5 °C. Consider `CCCc1nc(N2CCCCC2)c2[nH]c(-c3ccccc3)cc2n1` (as salt: hydrochloride) (hydrate or solvate) [Example 196c, 6-Phenyl-4-piperidyl-2-propylpyrrolo[3,2-d]pyrimidine Hydrochloride Monohydrate], for which the melting point was 258 to 262.5 °C. In turn, `Cc1nc(N2CCCCC2)c2[nH]c(-c3ccc4c(c3)CCC4)cc2n1.Cl` (hydrate or solvate) [Example 130, 6-Indan-5-yl-2-methyl-4-piperidylpyrrolo[3,2-d]pyrimidine Hydrochloride Monohydrate] yielded a melting point of 164 to 167 °C. Consider `Cc1cc(N2CCCCC2)c2oc(-c3ccccc3)cc2n1.Cl`, for which the melting point is more than 280 °C.

Molecule `Cc1nc(N2CCCCCC2)c2[nH]c(-c3ccccc3)cc2n1` [Example 8, 4-Homopiperidyl-2-methyl-6-phenylpyrrolo[3,2-d]pyrimidine] returned a melting point of 209 to 210 °C.

`Cc1nc(N2CCCCC2)c2[nH]c(-c3ccccc3)c(F)c2n1.Cl`: the melting point was more than 280 °C. The figure for `Cc1nc(N2CCCCC2)c2[nH]c(-c3cc(F)c(F)c(F)c3)cc2n1.Cl` (hydrate or solvate) [Example 116, 2-Methyl-4-piperidyl-6-(3,4,5-trifluorophenyl)pyrrolo[3,2-d]pyrimidine Hydrochloride Hydrate] is more than 280 °C; for `CSc1nc(N2CCCCC2)c2[nH]c(-c3ccccc3)cc2n1.Cl` (hydrate or solvate) it is 281 to 283 °C (dec.). As to `Cc1nc(N2CCCCC2)c2[nH]c(-c3cnn(-c4ccccc4)c3C)cc2n1.Cl` (hydrate or solvate), the melting point is more than 280 °C. As for `Cc1nc(N2CCc3ccccc32)c2[nH]c(-c3ccccc3)cc2n1` (as salt: hydrochloride) (hydrate or solvate) [Example 215, 4-Indolinyl-2-methyl-6-phenylpyrrolo[3,2-d]pyrimidine Hydrochloride Hydrate], the melting point is more than 300 °C.

For the molecule `Cc1nc(N2CCCCC2)c2[nH]c(-c3cccc(N)c3)cc2n1` (as salt: hydrochloride) (hydrate or solvate) [Example 187, 3-(2-Methyl-4-piperidylpyrrolo[4,5-d]pyrimidin-6-yl)phenylamine Hydrochloride Monohydrate], the melting point was more than 275 °C. `Cc1nc(N2CCCCC2)c2[nH]c(-c3ccc(C(F)(F)F)cc3)cc2n1.Cl` (hydrate or solvate) [Example 111, 2-Methyl-4-piperidyl-6-[4-(trifluoromethyl)phenyl]pyrrolo[3,2-d]pyrimidine Hydrochloride Hydrate] came in with a melting point of 278 to 280 °C. For `Cc1nc(N2CCCCC2)c2[nH]c(-c3ccc(O)c(F)c3)cc2n1.Cl` (hydrate or solvate), the melting point is more than 280 °C. `Cc1nc(N2CCNCC2)c2[nH]c(-c3ccccc3)cc2n1` [Example 26, 2-methyl-6-phenyl-4-piperazinylpyrrolo[3,2-d]pyrimidine]: the melting point was 236 °C. For the molecule `Cc1nc(N2CCCCC2)c2[nH]c(-c3ccccc3)c(-c3ccccc3)c2n1.Cl` (hydrate or solvate), the melting point was 169 to 171 °C. In the case of `CCCCc1cc2nc(C)cc(N3CCCCC3)c2o1.Cl` it was 172 to 173 °C. The figure for `Cc1nc(N2CCCCC2)c2[nH]c(-c3ccc(-c4ccccc4)cc3)cc2n1.Cl` (hydrate or solvate) is more than 280 °C. Turning to `Cc1nc(N2CCCCC2)c2[nH]c(-c3ccc(C)c(C)c3)cc2n1.Cl` (hydrate or solvate) [Example 124, 6-(3,4-Dimethylphenyl)-2-methyl-4-piperidylpyrrolo[3,2-d]pyrimidine Hydrochloride Hydrate], the melting point lay within 198 to 201 °C. Consider `CN(C)c1nc(N2CCCCC2)c2[nH]c(-c3ccccc3)cc2n1` (as salt: hydrochloride) (hydrate or solvate) [Example 203, Hydrochloride Hydrate], for which the melting point is more than 300 °C. `Cc1nc(N2CCCCC2)c2[nH]c(-c3ccc4c(c3)OCO4)c(C)c2n1.Cl` (hydrate or solvate) gave a melting point of 268 to 269 °C. `Cc1nc(N2CCCCC2)c2[nH]c(-c3ccc(F)cc3)cc2n1.Cl`: the melting point was 287 to 289 °C (dec.). In the case of `Cc1nc(N2CCCCC2)c2[nH]c(-c3ccc(Cl)c(Cl)c3)c(C)c2n1.Cl` (hydrate or solvate), the melting point is more than 280 °C. Molecule `Cc1nc(N2CCCCC2)c2[nH]c(-c3ccccn3)cc2n1.Cl` (hydrate or solvate) [Example 77, 2-Methyl-4-piperidyl-6-(2-pyridyl)pyrrolo[3,2-d]pyrimidine Hydrochloride Hydrate] displayed a melting point of more than 280 °C.

With `Cc1nc(N2CCc3ccccc3C2)c2sc(-c3ccccc3)cc2n1` (as salt: hydrochloride) (hydrate or solvate) [Example 221b, 2-Methyl-6-phenyl-4-[2-1,2,3,4-tetrahydroisoquinolyl)thiopheno[3,2-d]pyrimidine Hydrochloride Hydrate], the melting point lay within 263 to 265 °C. Regarding `Cc1nc(N2CCCCC2)c2[nH]c(-c3ccc4c(c3)OCCO4)cc2n1.Cl` (hydrate or solvate) [Example 125, 6-(2-Methyl-4-piperidylpyrrolo[4,5-d]pyrimidin-6-yl)-2H,3H-benzo[e]1,4-dioxane Hydrochloride Monohydrate], the melting point was more than 280 °C. In turn, `Cc1nc(NCc2ccc(C)o2)c2[nH]c(-c3ccccc3)cc2n1` [Example 17] displayed a melting point of 125 to 127.5 °C. In turn, `Cc1nc(N2CCCCC2)c2[nH]c(-c3ccc(-c4ccc(F)c(Cl)c4)o3)cc2n1.Cl` (hydrate or solvate) yielded a melting point of more than 280 °C. `Cc1nc(N2CCCCC2)c2[nH]c(-c3ccc4ccccc4c3)cc2n1.Cl` (hydrate or solvate) [Example 160, 2-Methyl-6-(2-naphthyl)-4-piperidylpyrrolo[3,2-d]pyrimidine Hydrochloride Hydrate] returned a melting point of more than 280 °C. As for `COc1nc(N2CCCCC2)c2[nH]c(-c3ccccc3)cc2n1` (as salt: hydrochloride) (hydrate or solvate), the melting point was 270 to 276 °C.

As to `Cc1nc(N2CCCCC2)c2[nH]c(C)cc2n1.Cl` (hydrate or solvate) [Example 104, 2,6-Dimethyl-4-piperidylpyrrolo[3,2-d]pyrimidine Hydrochloride Hydrate], the melting point lay in the range of 244 to 245.5 °C. Molecule `Cc1nc(N2CCCCC2)c2[nH]c(-c3cc(F)cc(F)c3)cc2n1.Cl` (hydrate or solvate) gave a melting point of more than 280 °C. In the case of `COc1ccccc1-c1cc2nc(C)nc(N3CCCCC3)c2[nH]1.Cl` (hydrate or solvate) it was 261 to 263 °C; in that of `Cc1c(-c2ccccc2)[nH]c2c(N3CCCCC3)ncnc12.Cl`, 281 to 282.5 °C. In the case of `COc1ccc(-c2cc3nc(C)nc(N4CCCCC4)c3[nH]2)cc1OC.Cl` (hydrate or solvate) [Example 126, 1,2-Dimethoxy-4-(2-methyl-4-piperidylpyrrolo[4,5-d]pyrimidin-6-yl)benzene Hydrochloride Hydrate] it was 268 to 270 °C. The figure for `Cc1nc(N2CCCCC2)c2[nH]c(-c3ccccc3)cc2[n+]1[O-]` [Example 184, 2-Methyl-6-phenyl-4-piperidylpyrrolo[3,2-d]pyrimidin-1-ol] is 169 to 170 °C.

Regarding `Cc1nc(N2CCCCC2)c2oc(-c3ccccc3)cc2n1` (as salt: hydrochloride) (hydrate or solvate), the melting point was more than 290 °C.

Molecule `Cc1nc(N2CCCCC2)c2[nH]c(-c3ccccc3)cc2n1` (as salt: hydrochloride) [Example 35, 2-methyl-6-phenyl-4-(piperidinyl)pyrrolo[3,2-d]pyrimidine] returned a melting point of 293 to 294 °C.

Molecule `Fc1ccc(-c2cc3nc(C4CC4)nc(N4CCCCC4)c3[nH]2)cc1` (as salt: hydrochloride) (hydrate or solvate) [Example 209c, 2-Cyclopropyl-6-(4-fluorophenyl)-4-piperidylpyrrolo[3,2-d]pyrimidine Hydrochloride Hydrate] registered a melting point of more than 280 °C. The figure for `COc1ccc(-c2c(C)[nH]c3c(N4CCCCC4)nc(C)nc23)cc1.Cl` (hydrate or solvate) is 170 °C (dec.).

What is called melting point is the temperature of the solid-liquid transition.
